Laboratory results taken from US20060166870A1, “Treatment of glioblastoma with thymosin-alpha 1” (Rhode Island Hospital, priority 2001, published 2006).
Values joined by “and” are separate entries in the source; they are usually repeats but may differ in a detail not shown here. Equal entries are not always repeated. “Also recorded” adds a separate entry of the source. No end group written: not given here.

What was measured:
9 L glioblastoma = details: for lympho-mononuclear inflammatory cell infiltrates in brain: histopathology, day 20
Experimental: Rat 9 L glioblastoma cells were obtained from the American Type Culture Collection (Washington, D.C.) and certified as pathogen-free. The cells were maintained in Dulbecco's Modified Eagle's Medium (DMEM) supplemented with 5% fetal calf serum (FCS) and 2 mM glutamine. Antibiotics were not added to the medium. Prior to injection, the cells were rinsed with phosphate-buffered saline (PBS), detached from the culture surfaces and dissociated into single cell suspensions with 0.25% trypsin/0.05% EDTA. The dissociated cells were washed 3 times in serum-free DMEM and finally suspended in serum-free DMEM at a density of 5×10^6 viable cells/ml. Viable cell density was determined using Trypan blue exclusion and a hemocytometer chamber.
An in vivo model of glioblastoma was generated in adult (250-300 grams) Long Evans rats. Rats were anesthetized with a single intraperitoneal injection of a cocktail containing 100 mg/kg ketamine and […] in 50% ethanol. After anesthetization, the head was shaved and prepped with povidone iodine, and the rat was placed in a stereotactic headframe. A midline incision was made and a 3 mm burr hole was drilled over the frontal lobe, and 2 μl of 9 L glioma cell suspension (10,000 cells total) was injected directly into the brain using a Hamilton syringe with attached 26-gauge needle placed at a depth of 3.5 mm. After removal of the needle, the wound was washed with sterile saline, the animal was removed from the frame and the skin was closed with resorbable sutures. The rats were returned to their cages and observed for any signs of deterioration including weight loss, reduced food and water intake, hemiparesis, seizures, or inactivity. If any degree of suffering was observed, the animals were euthanized with 120 mg/kg sodium pentobarbital. Animals were observed daily and weighed weekly.
The tumor was allowed to develop for 5 days, followed by anti-neoplastic treatment. Rats were divided into 6 treatment groups: vehicle control; low (45 μg/kg) thymalfasin; high (200 μg/kg) thymalfasin; low thymalfasin+BCNU; high thymalfasin+BCNC; and BCNU (9.4 mg/kg) only. BCNU was administered as a single intraperitoneal (I.P.) injection on day 6 after the intracerebral tumor inoculation. Rats treated with thymalfasin were given single I.P. injections of thymalfasin for 3 consecutive days, beginning on day 6 after tumor cell inoculation. Rats were sacrificed on day 20 post tumor inoculation. The rats were killed by I.P. injection of 120 mg/kg sodium pentobarbital. The brains were harvested, sectioned, immersion fixed in Histochoice (Amresco Co., Solon, Ohio), and processed for paraffin embedding. Tumor burden was assessed from the gross tissue blocks and the histological sections stained with hematoxylin and eosin. Histological sections were also used in immunohistochemical staining studies to detect inflammatory cell infiltrates.
A semiquantitative histological grading scale was used to assess tumor burden for inter-group comparisons: 0—cure, no residual tumor; 1—microscopic tumor (<1 mm) confined to the superficial cortex; 2—tumor mass occupying less than 25% of the hemisphere cross section (1-2 mm); 3—tumor mass occupying up to 50% of the hemisphere cross section (2-3 mm) and extending into deep structures; 4—massive tumor burden with involvement of 50-90% of the hemisphere cross section, with herniation. The sections were coded and graded simultaneously by two separate individuals without knowledge of treatment group. […]

9 L glioblastoma cells [1] = assay: Streptolysin O + recombinant Granzyme B killing assay (ATPlite viability); type: cell-based, rat; details: thymalfasin 24 h (acute) or 72 h (chronic), then SLO+Granzyme B 1 or 3 hours, p<0.001
Experimental: In order to determine the differential susceptibility of 9 L glioblastoma cells treated (or not) with thymalfasin to cytotoxic T-lymphocyte (CTL) induced apoptosis, experimental assays were conducted in which 9 L cells were treated both acutely for 24 hours and chronically for 72 hours with thymalfasin, after which they were harvested, re-seeded into 96-well black plates (7.5×10^5 cells/75 μl/well), and exposed to 20,000 units/ml Streptolysin O (SLO) plus 100 ng recombinant Granzyme B (reaction volume 100 μl) for 1 or 3 hours at 37° C. The SLO was used in place of perforin to permeabilize the cells, and recombinant Granzyme B was used to standardize the assay. Control studies included parallel reactions in which SLO, Granzyme B, or both were omitted. Viable cell density was measured using the ATPlite assay (Packard Instrument Company, Meriden, Conn.) which has a broad linear dynamic range correlating relative light units with cell densities between 10^3 to 10^6 cells per culture well.
In vivo, malignant neoplastic cells are killed by cytotoxic T cells and macrophages that are recruited by pro-inflammatory cytokines such as IL-2 and IL-12. […] Viability was measured using the ATP luminescence assay and within group comparisons were made to determine the relative killing associated with SLO+Granzyme B treatment. […]

9 L glioblastoma cells [2] = assay: H2O2-induced oxidative stress sensitivity of thymalfasin-treated 9 L cells (MTT); type: cell-based, rat
Experimental: H2O2 was used with cells to induce oxidative stress. […] In the experiments in which serially diluted amounts of thymalfasin were administered to the cells, a constant amount of the […] H2O2 was used to treat the cells. For 9 L cells, an H2O2 curve was developed in order to determine the correct H2O2 concentration with which to treat the cells.
(§1) MTT assays were conducted on 9 L and 293 cell lines to determine the effects of thymalfasin treatment and/or H2O2-induced oxidative stress on the mitochondrial function of the cells. After treatment, 10 μl of MTT solution were added to each well containing 100 μl of medium. The plates were incubated with the MTT dye in the 37° C. incubator for 15 min-1 hour, depending on the cell type. The medium was then removed, and 200 μl of acidic Isopropanol was added to each well. The plates were shaken at room temperature until cell lysis occurred, and then read in a Packard SpectraCount™ machine at 540 nm.
Validation of the ability of thymalfasin to increase the susceptibility of 9 L and 293 cells to apoptosis was sought testing H2O2-induced oxidative stress. As determined through MTT assays, 9 L cells treated with thymalfasin for 24 hours and subsequently H2O2 for 24 hours did indeed show significant loss in viability in comparison to 9 L cells treated only with H2O2 for 24 hours (FIG. 3).

9 L glioblastoma cells [3] = assay: BCNU-mediated killing of thymalfasin-treated 9 L cells; type: cell-based, rat; details: 24 or 72 hours thymalfasin treatment
[4] = system: Rat 9 L glioblastoma cells; assay: MTT assay of mitochondrial function in thymalfasin-treated 9 L cells; type: cell-based; details: 24 hours, various concentrations of thymalfasin, vs vehicle
Experimental: (§2) All cell lines were kept at 37° C. in a humidified atmosphere containing 5% CO2. The cell lines were obtained from the American Type Culture Collection and were certified as free of pathogens.
(§3) Thymosin alpha 1 treatment: For acute thymalfasin treatment, cells seeded in 96-well plates at a cell density of 20,000 cells/well were treated with 10^−5 M thymalfasin for 24 hours. Cells treated chronically with thymalfasin were grown in flasks and treated every 24 hours with 10^−5 M thymalfasin (added to fresh medium) for the duration of the treatment (3 days). In addition, for the determination of a dose-response curve to thymalfasin for 9 L cells, cells were treated with serially diluted amounts of thymalfasin, yielding thymalfasin concentrations ranging from 50 µM to […].
as §1

9 L glioblastoma cells [5] = assay: Microtiter immunocytochemical ELISA (MICE) assay of pro-apoptosis/survival gene products, 9 L cells; type: cell-based, rat
Experimental: (§4) Microtiter Immunocytochemical ELISA (MICE) Assays (de la Monte, 1999) were done on 9 L and 293 cells. Cells were seeded in 96-well plates, treated with 10^−5M thymalfasin for 24 hours, and histofixed overnight prior to analysis using MICE assay. the fixed cells were permeabilized with 0.05% saponin in Tris-buffered saline (50 mM Tris, pH 7.5, 0.9% NaCl; TBS), blocked with Superblock-TBS (Pierce, Rockford, Ill.), and then incubated overnight at 4° C. with primary antibodies to proliferating cell nuclear antigen (PCNA), bcl-2, p21/Wwaf-1, p53, FasL, FasR, TNF-R1, or GAPDH, each diluted to 0.5-1 μg/ml in TBS containing 0.05% Tween-20 and 0.5% bovine serum albumin (TBST-BSA). Immunoreactivity was detected using horseradish peroxidase conjugated secondary antibody (Pierce, Rockford, Ill.) and the TMB soluble substrate (Pierce, Rockford, Ill.). Reactions were stopped by the addition of 1 M H2SO4 and absorbances were measured at 450 nm in a Spectracount microplate reader (Packard Instrument Co., Meriden, Conn.). Subsequently, cell density was measured by staining the adherent cells with Coomassie blue dye and measuring the absorbance of the eluted dye (de la Monte, 1999). The MICE index was the calculated ratio of TMB and Coomassie blue absorbance measured in the same culture well. Mean±S.D. of results obtained from 16 replicate culture wells were used for inter-group statistical comparisons.
(§5) In this regard, the expression of gene products that promote either apoptosis or cell survival were examined, using housekeeping gene expression as control. The studies were performed in 96-well plates using the microtiter immunocytochemical ELISA […] assay to generate data from multiple replicate cultures. […] Thus, the results of the MICE assays indicate that for the two cell lines, thymalfasin works via different pathways to increase the susceptibility of the cells to cell death by apoptosis.

293 human kidney cells = assay: Microtiter immunocytochemical ELISA (MICE) assay of pro-apoptosis/survival gene products, 293 cells; type: cell-based
Experimental: as §4, §5

[6] = cited from earlier work
[7] = system: Primary neuronal cortical cells; assay: Cell viability of primary cortical neuron cultures (CV and MTT); type: cell-based
Source text: Primary cortical neuron cultures were studied to enable selection of thymalfasin doses that would not be toxic to non-neoplastic brain cells.
However, this dose is higher than established experimental and clinical dosages.

[8] = system: Rat 9 L glioblastoma cells; assay: Crystal violet (CV) cell viability assay in thymalfasin-treated 9 L cells; type: cell-based; details: thymalfasin vs vehicle-treated control
Experimental: as §2, §3
Crystal Violet (CV) was also used to stain cells in 96-well plates. After discarding the medium, 20 μl of crystal violet was added to each well and shaken at room temperature for 10 minutes. The plates were then washed several times with warm water and dried. 100-200 μl (depending on cell density) of PBS w/1% SDS was added to each well. The plates were incubated at room temperature on a shaker until the cells were sufficiently lysed. The plates were read at 540 nm to detect differences in cell viability between the various groups tested.

[9] = 10^-5 M thymalfasin, 24 hours, P<0.01

For `O=NN(CCCl)C(=O)NCCCl` [BCNU, bischloroethyl nitrosurea], the “reduction of tumor burden in responding animals” value (9 L glioblastoma; BCNU 9.4 mg/kg I.P. single dose, nearly half the group showed no response) was “up to 50%” and the “lympho-mononuclear inflammatory cell infiltrates in brain” value (9 L glioblastoma) was “scant”.

In the case of “Thymosin α-1 (SDAAVDTSSEITTKDLKEKKEVVEEAEN; ends and bridges not checked; UniProt P06454 2-29, looked up) [thymalfasin, 28-amino acid peptide, a synthetic form of a naturally occurring compound that is found in circulation]”, the “cell viability after SLO+Granzyme B relative to SLO, Granzyme B or vehicle alone” value (9 L glioblastoma cells [1]) is reported as “significant reductions in cell viability”, the “decrease in mitochondrial functioning (MTT) vs cells treated only with H2O2” value (9 L glioblastoma cells [2]; 9 L cells, thymalfasin 24 hours then 270 μM H2O2 24 hours) is reported as 26.6% and the “9 L cells killed by ordinarily non-lethal (sub-lethal) H2O2 after thymalfasin treatment” value (9 L glioblastoma cells [2]; 24 or 72 hours thymalfasin treatment) is reported as 25% and 30-50%. The “9 L cells killed by sub-lethal concentrations of BCNU after thymalfasin treatment” value (9 L glioblastoma cells [3]) was 40%, the “cell mitochondrial functioning (MTT)” value [4] was “minimal effect; also recorded: insignificant decrease; also recorded: no direct effect” and the “increase in FasL level relative to vehicle-treated controls” value (9 L glioblastoma cells [5]; [9]) was 65.89%. The “increase in FasR level relative to vehicle-treated controls” value (9 L glioblastoma cells [5]; [9]) was 44.08%, the “increase in TNF-R1 level relative to vehicle-treated controls” value (9 L glioblastoma cells [5]; [9]) was 22.18% and the GAPDH expression level (9 L glioblastoma cells [5]; thymalfasin 24 hours) was “not significantly affected”. For the same molecule, the bcl-2 expression level (9 L glioblastoma cells [5]; thymalfasin 24 hours) was “not significantly affected”, the “change in FasL expression” value (293 human kidney cells; data not shown) was “no significant changes” and the “change in FasR expression” value (293 human kidney cells; data not shown) was “no significant changes”. The “change in TNF-R1 expression” value (293 human kidney cells; data not shown) was “no significant changes”, the “reduction in bcl-2” value (293 human kidney cells; thymalfasin, P<0.01, data not shown) was 36.67% and the “dose found to be safe for humans” value [6] was at most 16 mg/kg body weight/day. The “tumor burden / tumor growth” value (9 L glioblastoma; Long Evans rats, 10,000 9 L cells intracerebral, I.P. treatment from day 6, sacrifice day 20, BCNU 9.4 mg/kg, thymalfasin 45 or 200 μg/kg) was “the same as control or worse”, the “lympho-mononuclear inflammatory cell infiltrates in brain” value (9 L glioblastoma) was “conspicuous” and the “intracerebral swelling and herniation” value (9 L glioblastoma; rat, in vivo) was “extreme intracerebral swelling”. The “decrease in viability (MTT) of primary neuronal cortical cells” value ([7]; highest concentration of thymalfasin used (3.3×10^−7M as printed)) was 30%, the “cell viability of primary neuronal cortical cells” value ([7]; serial dilutions, 3.3×10^−5 M to 1×10^−9 M, experimental doses) was “no decrease in cell viability” and the “cell viability / direct cytotoxic effect” value [8] was “minimal effect; also recorded: no significant direct cytotoxic effects; also recorded: no direct effect”.
